The values that follow come from ChEMBL document CHEMBL4418260, “Cyclopentanecarboxamide derivatives, medicaments containing such compounds and their use” (2017).

Common to all, as to assay type: cell-based
Test [1] concerns the target Fatty acid synthase (Mus musculus) (UniProt P19096). In words: Inhibition of FAS in mouse N42 cells assessed as [14C]-acetate incorporation at 10 uM preincubated for 60 mins followed by [14C]-acetate addition and measured after 4 hrs by beta scintillation counting method relative to control. Also noted: scale not given: the % may be the effect or the level left.
Test [2] has as its target Fatty acid synthase (Homo sapiens, UniProt P49327). In words: Inhibition of human HeLa cell derived FAS preincubated for 60 mins in presence of acetyl coenzyme A and NADPH followed by malonyl coenzyme A addition and measured after 10 mins by fluorescence method.
For test [3], the target named is Fatty acid synthase (Mus musculus) (UniProt P19096). In words: Inhibition of FAS in mouse N42 cells assessed as [14C]-acetate incorporation at 100 uM preincubated for 60 mins followed by [14C]-acetate addition and measured after 4 hrs by beta scintillation counting method relative to control. Also noted: scale not given: the % may be the effect or the level left.
Chain of Fatty acid synthase (Mus musculus) (P19096 whole entry): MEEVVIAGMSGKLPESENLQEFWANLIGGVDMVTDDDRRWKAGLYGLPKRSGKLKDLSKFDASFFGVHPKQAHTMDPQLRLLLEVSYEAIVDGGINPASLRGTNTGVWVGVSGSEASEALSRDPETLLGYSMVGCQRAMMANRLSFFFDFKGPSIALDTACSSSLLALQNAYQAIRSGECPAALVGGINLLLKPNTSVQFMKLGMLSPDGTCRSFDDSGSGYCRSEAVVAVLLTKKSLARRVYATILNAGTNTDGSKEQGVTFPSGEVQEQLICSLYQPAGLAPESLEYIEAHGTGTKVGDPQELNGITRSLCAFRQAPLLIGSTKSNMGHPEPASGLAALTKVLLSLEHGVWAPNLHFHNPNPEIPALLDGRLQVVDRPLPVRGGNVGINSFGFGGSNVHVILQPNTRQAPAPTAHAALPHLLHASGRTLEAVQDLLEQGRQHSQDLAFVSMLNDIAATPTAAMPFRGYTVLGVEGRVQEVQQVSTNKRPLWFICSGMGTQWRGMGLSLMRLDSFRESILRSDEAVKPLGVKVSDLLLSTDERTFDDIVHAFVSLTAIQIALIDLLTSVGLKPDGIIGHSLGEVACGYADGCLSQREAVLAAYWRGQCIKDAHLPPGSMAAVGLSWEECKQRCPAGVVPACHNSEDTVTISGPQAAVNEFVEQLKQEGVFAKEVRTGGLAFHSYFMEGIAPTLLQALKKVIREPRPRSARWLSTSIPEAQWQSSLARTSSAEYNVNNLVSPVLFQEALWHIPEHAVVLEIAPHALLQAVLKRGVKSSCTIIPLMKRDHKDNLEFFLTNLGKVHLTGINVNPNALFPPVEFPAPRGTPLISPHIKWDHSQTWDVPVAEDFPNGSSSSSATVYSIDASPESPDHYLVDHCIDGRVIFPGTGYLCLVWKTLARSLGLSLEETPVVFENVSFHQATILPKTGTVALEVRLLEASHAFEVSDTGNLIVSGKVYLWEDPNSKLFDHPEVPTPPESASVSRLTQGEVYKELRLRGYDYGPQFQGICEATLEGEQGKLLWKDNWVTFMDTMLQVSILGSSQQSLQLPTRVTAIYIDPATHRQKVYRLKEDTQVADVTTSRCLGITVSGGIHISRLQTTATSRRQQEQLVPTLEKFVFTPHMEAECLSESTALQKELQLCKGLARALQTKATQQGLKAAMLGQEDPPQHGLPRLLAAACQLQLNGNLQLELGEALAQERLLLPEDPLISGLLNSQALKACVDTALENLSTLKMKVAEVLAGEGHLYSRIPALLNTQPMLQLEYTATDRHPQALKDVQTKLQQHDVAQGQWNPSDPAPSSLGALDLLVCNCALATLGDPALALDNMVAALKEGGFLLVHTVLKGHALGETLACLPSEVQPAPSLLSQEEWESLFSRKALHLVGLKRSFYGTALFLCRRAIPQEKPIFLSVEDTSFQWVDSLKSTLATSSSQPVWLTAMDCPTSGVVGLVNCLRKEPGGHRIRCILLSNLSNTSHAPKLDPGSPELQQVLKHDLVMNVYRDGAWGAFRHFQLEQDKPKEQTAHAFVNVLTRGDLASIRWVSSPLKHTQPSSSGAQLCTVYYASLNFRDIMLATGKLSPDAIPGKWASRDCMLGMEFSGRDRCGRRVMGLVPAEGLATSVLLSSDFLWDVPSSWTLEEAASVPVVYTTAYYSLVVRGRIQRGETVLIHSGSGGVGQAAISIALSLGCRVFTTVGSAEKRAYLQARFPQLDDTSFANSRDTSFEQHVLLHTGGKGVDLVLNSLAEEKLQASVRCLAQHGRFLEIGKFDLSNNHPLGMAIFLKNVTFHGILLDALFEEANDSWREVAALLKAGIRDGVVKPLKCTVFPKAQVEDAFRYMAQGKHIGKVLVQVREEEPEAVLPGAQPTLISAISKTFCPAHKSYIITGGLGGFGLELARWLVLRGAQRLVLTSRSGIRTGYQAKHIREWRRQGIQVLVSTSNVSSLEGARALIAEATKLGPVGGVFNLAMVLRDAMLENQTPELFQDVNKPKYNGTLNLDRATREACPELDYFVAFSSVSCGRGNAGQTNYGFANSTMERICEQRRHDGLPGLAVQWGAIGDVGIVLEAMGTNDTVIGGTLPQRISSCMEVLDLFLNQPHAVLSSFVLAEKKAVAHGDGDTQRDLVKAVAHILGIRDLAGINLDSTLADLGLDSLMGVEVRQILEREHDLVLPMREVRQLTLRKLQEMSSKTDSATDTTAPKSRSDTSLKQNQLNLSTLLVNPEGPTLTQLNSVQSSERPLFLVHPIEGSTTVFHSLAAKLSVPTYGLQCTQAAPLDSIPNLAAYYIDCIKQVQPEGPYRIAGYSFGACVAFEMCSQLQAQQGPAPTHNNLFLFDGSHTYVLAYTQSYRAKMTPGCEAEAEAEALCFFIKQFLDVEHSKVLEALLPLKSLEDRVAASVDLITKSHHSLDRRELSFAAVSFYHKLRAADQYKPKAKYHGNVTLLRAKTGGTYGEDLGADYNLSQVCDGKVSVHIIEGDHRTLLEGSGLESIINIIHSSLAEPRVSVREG

Chain of Fatty acid synthase (P49327 whole entry): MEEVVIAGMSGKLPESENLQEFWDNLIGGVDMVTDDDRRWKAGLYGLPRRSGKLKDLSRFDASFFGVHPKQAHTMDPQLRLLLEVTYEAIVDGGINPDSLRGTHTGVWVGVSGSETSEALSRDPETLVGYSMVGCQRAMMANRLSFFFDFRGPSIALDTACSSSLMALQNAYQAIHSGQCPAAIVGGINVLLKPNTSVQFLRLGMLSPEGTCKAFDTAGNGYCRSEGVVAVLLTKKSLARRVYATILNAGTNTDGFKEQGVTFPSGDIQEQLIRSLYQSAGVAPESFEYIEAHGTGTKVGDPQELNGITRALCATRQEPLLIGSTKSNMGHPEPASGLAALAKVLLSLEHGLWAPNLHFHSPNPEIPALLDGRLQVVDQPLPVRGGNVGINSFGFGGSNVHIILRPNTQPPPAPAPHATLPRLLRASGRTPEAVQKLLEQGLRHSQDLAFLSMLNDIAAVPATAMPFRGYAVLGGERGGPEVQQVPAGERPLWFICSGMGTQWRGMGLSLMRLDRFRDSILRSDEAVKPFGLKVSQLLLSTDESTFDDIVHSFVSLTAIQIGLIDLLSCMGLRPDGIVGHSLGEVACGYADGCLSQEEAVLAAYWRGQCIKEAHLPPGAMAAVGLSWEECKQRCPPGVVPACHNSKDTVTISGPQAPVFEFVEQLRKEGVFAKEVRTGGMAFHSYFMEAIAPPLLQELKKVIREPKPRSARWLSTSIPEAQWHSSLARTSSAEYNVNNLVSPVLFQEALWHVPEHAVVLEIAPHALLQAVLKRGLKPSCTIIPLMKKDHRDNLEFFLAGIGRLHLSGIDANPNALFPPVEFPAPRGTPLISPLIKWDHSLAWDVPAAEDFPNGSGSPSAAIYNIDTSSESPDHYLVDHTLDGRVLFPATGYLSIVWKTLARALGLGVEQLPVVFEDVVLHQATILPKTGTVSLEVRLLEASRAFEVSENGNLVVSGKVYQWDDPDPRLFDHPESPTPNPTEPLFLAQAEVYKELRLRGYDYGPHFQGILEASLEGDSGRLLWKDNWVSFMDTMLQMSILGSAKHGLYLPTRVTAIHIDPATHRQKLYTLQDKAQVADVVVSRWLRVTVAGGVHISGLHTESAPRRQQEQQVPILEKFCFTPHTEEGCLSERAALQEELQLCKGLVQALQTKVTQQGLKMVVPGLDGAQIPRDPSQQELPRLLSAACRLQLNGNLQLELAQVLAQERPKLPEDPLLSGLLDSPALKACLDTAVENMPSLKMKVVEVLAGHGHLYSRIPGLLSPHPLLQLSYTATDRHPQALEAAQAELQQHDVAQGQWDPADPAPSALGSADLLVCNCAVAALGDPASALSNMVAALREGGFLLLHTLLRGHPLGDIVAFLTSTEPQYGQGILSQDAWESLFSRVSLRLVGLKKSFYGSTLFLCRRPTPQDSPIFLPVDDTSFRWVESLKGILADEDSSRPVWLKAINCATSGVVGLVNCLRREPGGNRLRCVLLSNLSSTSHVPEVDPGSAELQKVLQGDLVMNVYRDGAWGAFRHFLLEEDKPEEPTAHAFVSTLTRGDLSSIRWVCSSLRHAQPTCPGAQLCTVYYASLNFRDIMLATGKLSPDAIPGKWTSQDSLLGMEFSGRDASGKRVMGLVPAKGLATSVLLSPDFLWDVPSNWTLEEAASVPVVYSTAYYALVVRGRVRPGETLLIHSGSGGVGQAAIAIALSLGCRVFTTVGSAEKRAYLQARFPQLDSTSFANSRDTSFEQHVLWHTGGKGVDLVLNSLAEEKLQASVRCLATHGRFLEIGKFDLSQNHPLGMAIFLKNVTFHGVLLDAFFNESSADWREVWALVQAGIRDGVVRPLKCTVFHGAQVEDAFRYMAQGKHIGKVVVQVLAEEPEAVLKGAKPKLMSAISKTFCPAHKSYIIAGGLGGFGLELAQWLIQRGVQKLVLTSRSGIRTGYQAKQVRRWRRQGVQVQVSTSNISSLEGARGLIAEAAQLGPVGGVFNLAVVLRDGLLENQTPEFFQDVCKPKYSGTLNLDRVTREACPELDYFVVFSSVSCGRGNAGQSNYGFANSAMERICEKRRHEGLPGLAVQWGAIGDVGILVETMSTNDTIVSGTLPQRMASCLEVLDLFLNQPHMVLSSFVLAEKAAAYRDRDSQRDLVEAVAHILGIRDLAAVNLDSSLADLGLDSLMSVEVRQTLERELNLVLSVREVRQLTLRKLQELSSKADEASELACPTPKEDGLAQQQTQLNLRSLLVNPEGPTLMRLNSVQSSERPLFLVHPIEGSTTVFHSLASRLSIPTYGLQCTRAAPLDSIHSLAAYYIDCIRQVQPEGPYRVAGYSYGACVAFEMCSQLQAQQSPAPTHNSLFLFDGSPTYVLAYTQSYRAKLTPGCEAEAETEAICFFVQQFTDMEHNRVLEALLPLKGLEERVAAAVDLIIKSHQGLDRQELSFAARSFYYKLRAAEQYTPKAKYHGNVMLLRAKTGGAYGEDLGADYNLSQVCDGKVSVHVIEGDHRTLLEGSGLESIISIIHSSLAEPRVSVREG

In the case of `CC(=O)N[C@H]1CC[C@@H](C(=O)N(C)c2ccc(-c3nc4ccccc4o3)cc2)C1`, in test [1], the Activity is 81.7%. As to `CCC(=O)N[C@H]1CC[C@@H](C(=O)N(C)c2ccc(-c3nc4ccccc4[nH]3)cc2)C1`, the Activity in test [1] came to 80.8%. Regarding `CN(C)CCCCCC(=O)N[C@H]1CC[C@@H](C(=O)N(C)c2ccc(-c3nc4ccccc4o3)cc2)C1`, the IC50 in test [2] was 0.5 to 3 µM. With `CCC(=O)N[C@H]1CC[C@@H](C(=O)N(C)c2ccc(-c3nc4ccccc4o3)cc2)C1`, the Activity in test [1] stood at 64.1%.

`CCC(=O)N[C@H]1CC[C@@H](C(=O)N(C)c2ccc(-c3ccccc3)cc2)C1`: in test [1], the Activity came to 76.8%. On the same count and under the same terms, then `CCC(=O)N[C@H]1CC[C@@H](C(=O)N(C)c2ccc(-c3nc4ccccc4n3C)cc2)C1`, with 85.7%. As to `C/C=C/C/C=C/CCC(=O)[C@H]1O[C@H]1C(N)=O`, the Activity in test [3] turned out to be 73.3%. Regarding `CCCC(=O)N[C@H]1CC[C@@H](C(=O)N(C)c2ccc(-c3nc4ccccc4o3)cc2)C1`, in test [1], the Activity stood at 81%.
